Test results from patent US6319702A, “Nucleic acids encoding mutant human carboxypeptidase A enzymes” (Glaxo Wellcome, Inc., priority 1993, dated 2001).
Like-named read-outs stand apart in the source and are kept apart here.

How the values were obtained:
[1] = target: T1, wild type human carboxypeptidase A1 (Homo sapiens, UniProt P15085); assay: Enzyme kinetics of prodrugs with wild type human carboxypeptidase A1 (coupled assay); format: biochemical; conditions: for kcat (symbol ND): Human CPA1, rate too slow to assay
T1 sequence (P15085 111-419): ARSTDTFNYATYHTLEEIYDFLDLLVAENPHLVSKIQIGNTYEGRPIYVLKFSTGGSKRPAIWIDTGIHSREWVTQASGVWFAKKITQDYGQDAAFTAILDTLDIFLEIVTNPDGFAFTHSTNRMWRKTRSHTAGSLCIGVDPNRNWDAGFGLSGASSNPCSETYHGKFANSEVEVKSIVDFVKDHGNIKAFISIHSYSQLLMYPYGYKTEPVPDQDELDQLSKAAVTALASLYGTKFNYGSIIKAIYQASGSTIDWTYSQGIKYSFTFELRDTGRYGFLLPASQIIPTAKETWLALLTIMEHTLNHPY
Source text: (§1) As indicated herein, the in vivo stable prodrug of the present invention should be a better substrate for a mutant enzyme than the corresponding wild type enzyme in order for the stable prodrug to be activated selectively at the tumour. […] The most relevant kinetic constant in the table is the kcat/Km, which provides an estimate of the second order rate constant for the enzyme catalyzed conversion of prodrug to methotrexate. Thus, the larger the kcat/Km, the more efficient the enzyme with a particular substrate. […] Thus, the single mutation at 268 from thr to gly converted very poor substrates in the wild type enzyme to excellent substrates in the mutant enzyme. […] Thus, the compounds are much better substrates for the mutant enzyme than the wild type enzyme which permits very specific tumor targeted activation of the nontoxic, stable prodrug to the active agent.
(§2) Kinetics were determined by a modification of the coupled assay of Kuefner, et al (1989) Biochemistry 28 2288-2297 in which the product MTX is converted by excess carboxypeptidase G to the pteroate of MTX. In this assay the reaction is followed spectrophotometrically at 315 nm; at this wavelength the change in molar absorbtivity for the coupled reaction was determined to be 9.57 mM^-1 cm^-1. Assays were performed at 25° C. in 25 mM tris-HCl, 100 mM NaCl, pH 7.4. Prodrugs were preincubated at 25° C. with buffer and 17 milliunits of Sigma #C-9658 carboxypeptidase G in 1 ml total volume. Assay was initiated with carboxypeptidase A or the appropriate mutant. Initial velocities were obtained, and standard Michaelis-Menten calculations were used to determine kinetic constants (in Biochemistry, Lehninger, A. L. 1970, Worth Publishers, Inc, NY).

[2] = system: 268ala; assay: Enzyme kinetics of prodrugs with 268ala mutant of human CPA1 (coupled assay); format: biochemical
Source text: as §1, §2

[3] = system: 268gly; assay: Enzyme kinetics of prodrugs with 268gly mutant of human CPA1 (coupled assay); format: biochemical; conditions: for kcat/Km: 268Gly; for Km / kcat: 268gly, 25° C., pH 7.4
Source text: as §1, §2

[4] = mouse, in vivo, iv
[5] = in vivo; conditions: mouse, iv
[6] = Stability and biodistribution of prodrugs in vivo (HPLC of plasma and tissues); design: species or system mice (CD-1 nude; BALB/C where indicated)
[7] = system: mutant enzyme; assay: Substrate behaviour with mutant enzyme; format: biochemical, human
Source text: This type of compound is not useful for ADEPT.

[8] = Prodrug toxicity, maximum tolerated dose; conditions: Swiss nu/nu mice, IV daily for 5 days
[9] = IEF of proCPA and mature CPA; format: physicochemical
Method: The final OD600 was 14. […] All subsequent buffers contained 0.1 mM Zn-acetate. […] Total protein=368 mg.

[10] = substrate: CN(Cc1cnc2nc(N)nc(N)c2n1)c1ccc(C(=O)N[C@@H](CCC(=O)O)C(=O)N[C@@H](Cc2ccccc2)C(=O)O)cc1; assay: Enzyme kinetics of prodrugs with wild type human carboxypeptidase A1 (coupled assay); format: biochemical; conditions: other: Human CPA1, 25° C., pH 7.4
Source text: as §1
(§3) Kinetics were determined by a modification of the coupled assay of Kuefner, et al (1989) Biochemistry 28 2288-2297 in which the product MTX is converted by excess carboxypeptidase G to the pteroate of MTX. In this assay the reaction is followed spectrophotometrically at 315 nm; at this wavelength the change in molar absorbtivity for the coupled reaction was determined to be 9.57 mM^-1 cm^-1. Assays were performed at 25° C. in 25 mM tris-HCl, 100 mM NaCl, pH 7.4. […]

[11] = substrate: CN(Cc1cnc2nc(N)nc(N)c2n1)c1ccc(C(=O)N[C@@H](CCC(=O)O)C(=O)N[C@@H](Cc2ccccc2C2CCCC2)C(=O)O)cc1; assay: as above; format: biochemical; conditions: other: Human CPA1, 25° C., pH 7.4
Source text: as §1, §3

CN(Cc1cnc2nc(N)nc(N)c2n1)c1ccc(C(=O)N[C@@H](CCC(=O)O)C(=O)N[C@@H](Cc2cccc(C3CCC3)c2)C(=O)O)cc1
human CPA catalyzed reaction (in words) [1]: not measureable | kcat/Km for human CPA1 compared with that of the L-phenylalanine prodrug (in words) [1]: much lower | kcat (symbol ND) [1]: ND (not determined; rate to slow assay. kcat ≤ 0.0005/sec.) | Km ([2]; 25° C., pH 7.4): 160 µM | kcat ([2]; 25° C., pH 7.4): 0.12 s⁻¹ | kcat/Km [3]: 1.8e+06 M⁻¹ s⁻¹ | activity of 268Gly relative to CPA1 with the L-phenylalanine prodrug of MTX ([3]; 268Gly with prodrug vs human CPA1 with L-phenylalanine prodrug): 4 times | Km [3]: 1.8 µM | kcat [3]: 3 s⁻¹ | dose showing some toxicity [4]: 30 mg/kg | MTD [5]: < 30 mg/kg

CN(Cc1cnc2nc(N)nc(N)c2n1)c1ccc(C(=O)N[C@@H](CCC(=O)O)C(=O)N[C@@H](Cc2cccc(C(C)(C)C)c2)C(=O)O)cc1 [Prodrug 12, N-(4-(((2,4-diamino-6-pterdinyl)methyl)methylamino)benzoyl)-L-glutam-1-yl-3-tert-butyl-L-phenylalanine]
concentration of prodrug in cecum ([6]; CECUM, 30 min, 50 mg/kg i.p. or i.v., CD-1 nude mice): 16.3 nmol/g | concentration of prodrug in cecum ([6]; CECUM, 120 min, 50 mg/kg i.p. or i.v., CD-1 nude mice): 402.3 nmol/g | concentration of prodrug in feces ([6]; FECES, 30 min, 50 mg/kg i.p. or i.v., CD-1 nude mice): 1205 nmol/g | concentration of prodrug in feces ([6]; FECES, 120 min, 50 mg/kg i.p. or i.v., CD-1 nude mice): 1941 nmol/g | concentration of prodrug in kidney ([6]; KIDNEY, 30 min, 50 mg/kg i.p. or i.v., CD-1 nude mice): 2.2 nmol/g | concentration of prodrug in kidney ([6]; KIDNEY, 120 min, 50 mg/kg i.p. or i.v., CD-1 nude mice): 0.2 nmol/g | concentration of prodrug in large intestine ([6]; LARGE INTESTINE, 120 min, 50 mg/kg i.p. or i.v., CD-1 nude mice): 14.7 nmol/g | concentration of prodrug in liver ([6]; LIVER, 30 min, 50 mg/kg i.p. or i.v., CD-1 nude mice): 58.6 nmol/g | concentration of prodrug in liver ([6]; LIVER, 120 min, 50 mg/kg i.p. or i.v., CD-1 nude mice): 39.5 nmol/g | concentration of prodrug in small intestine ([6]; SMALL INTESTINE, 30 min, 50 mg/kg i.p. or i.v., CD-1 nude mice): 550.8 nmol/g | concentration of prodrug in small intestine ([6]; SMALL INTESTINE, 120 min, 50 mg/kg i.p. or i.v., CD-1 nude mice): 44.9 nmol/g | concentration of prodrug in tumor ([6]; TUMOR, 30 min, 50 mg/kg i.p. or i.v., CD-1 nude mice): 1.6 nmol/g | stability in vivo (in words) ([6]; mice, 50 mg/kg): stable in vivo | remaining at 0.5 h ([6]; mouse, cecum, 50 mg/kg, CECUM, 30 min, 50 mg/kg i.p. or i.v., CD-1 nude mice, read-out: stability: percentage of material observed as intact prodrug, cecum): 100% | remaining at 2 h ([6]; mouse, cecum, 50 mg/kg, CECUM, 120 min, 50 mg/kg i.p. or i.v., CD-1 nude mice, read-out: stability: percentage of material observed as intact prodrug, cecum): 80.7% | remaining at 0.5 h ([6]; mouse, feces, 50 mg/kg, FECES, 30 min, 50 mg/kg i.p. or i.v., CD-1 nude mice, read-out: stability: percentage of material observed as intact prodrug, feces (converted)): 93% | remaining at 2 h ([6]; mouse, feces, 50 mg/kg, FECES, 120 min, 50 mg/kg i.p. or i.v., CD-1 nude mice, read-out: stability: percentage of material observed as intact prodrug, feces): 82% | remaining at 0.5 h ([6]; mouse, kidney, 50 mg/kg, KIDNEY, 30 min, 50 mg/kg i.p. or i.v., CD-1 nude mice, read-out: stability: percentage of material observed as intact prodrug, kidney): 53.4% | remaining at 2 h ([6]; mouse, kidney, 50 mg/kg, KIDNEY, 120 min, 50 mg/kg i.p. or i.v., CD-1 nude mice, read-out: stability: percentage of material observed as intact prodrug, kidney): 21.6% | remaining at 2 h ([6]; mouse, large intestine, 50 mg/kg, LARGE INTESTINE, 120 min, 50 mg/kg i.p. or i.v., CD-1 nude mice, read-out: stability: percentage of material observed as intact prodrug, large intestine): 66.9% | remaining at 0.5 h ([6]; mouse, liver, 50 mg/kg, LIVER, 30 min, 50 mg/kg i.p. or i.v., CD-1 nude mice, read-out: stability: percentage of material observed as intact prodrug, liver (converted)): 91.3% | remaining at 2 h ([6]; mouse, liver, 50 mg/kg, LIVER, 120 min, 50 mg/kg i.p. or i.v., CD-1 nude mice, read-out: stability: percentage of material observed as intact prodrug, liver): 89.2% | concentration at 0.5 h ([6]; mouse, plasma, 50 mg/kg, PLASMA, 30 min, 50 mg/kg i.p. or i.v., CD-1 nude mice, read-out: concentration of prodrug in plasma): 2600 nM | remaining at 0.5 h ([6]; mouse, plasma, 50 mg/kg, PLASMA, 30 min, 50 mg/kg i.p. or i.v., CD-1 nude mice, read-out: stability: percentage of material observed as intact prodrug, plasma): 100% | concentration at 2 h ([6]; mouse, plasma, 50 mg/kg, PLASMA, 120 min, 50 mg/kg i.p. or i.v., CD-1 nude mice, read-out: concentration of prodrug in plasma): 700 nM | remaining at 2 h ([6]; mouse, plasma, 50 mg/kg, PLASMA, 120 min, 50 mg/kg i.p. or i.v., CD-1 nude mice, read-out: stability: percentage of material observed as intact prodrug, plasma): 100% | remaining at 0.5 h ([6]; mouse, small intestine, 50 mg/kg, SMALL INTESTINE, 30 min, 50 mg/kg i.p. or i.v., CD-1 nude mice, read-out: stability: percentage of material observed as intact prodrug, small intestine): 91% | remaining at 2 h ([6]; mouse, small intestine, 50 mg/kg, SMALL INTESTINE, 120 min, 50 mg/kg i.p. or i.v., CD-1 nude mice, read-out: stability: percentage of material observed as intact prodrug, small intestine): 67% | remaining at 0.5 h ([6]; mouse, tumor, 50 mg/kg, TUMOR, 30 min, 50 mg/kg i.p. or i.v., CD-1 nude mice, read-out: stability: percentage of material observed as intact prodrug, tumor): 92.8% | human CPA catalyzed reaction (in words) [1]: not measureable | kcat/Km for human CPA1 compared with that of the L-phenylalanine prodrug (in words) [1]: much lower | substrate for wild type CPA (in words) [1]: not for the wild type enzyme | kcat (symbol ND) [1]: ND (not determined; rate to slow assay. kcat ≤ 0.0005/sec.) | kcat (symbol ND) ([2]; rate too slow to assay): ND (not determined; rate to slow assay. kcat ≤ 0.0005/sec.) | activity of 268Gly compared with human CPA1 with the L-phenylalanine prodrug (in words) [3]: not different | kcat/Km [3]: 380000 M⁻¹ s⁻¹ | Km [3]: 2.1 µM | kcat [3]: 0.81 s⁻¹ | substrate for a mutant enzyme (in words) [7]: good substrates for a mutant enzyme | MTD [5]: > 40 mg/kg | NOAEL [5]: ≥ 40 mg/kg

CN(Cc1cnc2nc(N)nc(N)c2n1)c1ccc(C(=O)N[C@@H](CCC(=O)O)C(=O)O)cc1 [methotrexate, reference compound]
MTD [5]: 4 mg/kg | maximum tolerated dose (MTD) [8]: 2.5 mg/kg

B1: proCPA: procarboxypeptidase A, cleaved to mature CPA with trypsin (protein, UniProt P15085 17-419, looked up)
pro-form: KEDFVGHQVLRISVADEAQVQKVKELEDLEHLQLDFWRGPAHPGSPIDVRVPFPSIQAVKIFLESHGISYETMIEDVQSLLDEEQEQMFAFRSRARSTDTFNYATYHTLEEIYDFLDLLVAENPHLVSKIQIGNTYEGRPIYVLKFSTGGSKRPAIWIDTGIHSREWVTQASGVWFAKKITQDYGQDAAFTAILDTLDIFLEIVTNPDGFAFTHSTNRMWRKTRSHTAGSLCIGVDPNRNWDAGFGLSGASSNPCSETYHGKFANSEVEVKSIVDFVKDHGNIKAFISIHSYSQLLMYPYGYKTEPVPDQDELDQLSKAAVTALASLYGTKFNYGSIIKAIYQASGSTIDWTYSQGIKYSFTFELRDTGRYGFLLPASQIIPTAKETWLALLTIMEHTLNHPY
modifications: pro-form
notes: procarboxypeptidase A, cleaved to mature CPA with trypsin
pI [9]: 4.75

B2: wild type human carboxypeptidase A1 (Homo sapiens) (protein)
chain: T1 sequence (P15085 111-419)
pI [9]: 6.2 | Km [10]: 4.3 µM | Km [11]: 61 µM
